The text below walks through data of patent US9782411B2, “{4-[5-(3-chloro-phenoxy)-oxazolo[5,4-d]pyrimidin-2-yl]-2,6-dimethyl-phenoxy}-acetic acid for use in the prevention or treatment of acute kidney injury” (Sanofi, priority 2013, dated 2017).

Where “and” joins values, the source holds several entries; their conditions need not be identical. Equal values may be shown once. Where only a bound is given, the exact number is not on record here.

Data set [1] addresses T1, S1P2 (Homo sapiens, UniProt O95136). Briefly: PathHunter β-arrestin assay, S1P2. The class given is cell-based. The settings on record: 0.5% FBS. The procedure: (§1) The PathHunter® β-Arrestin Assay from DiscoverX was used to determine the EC50 activity of compound A, BAF-312 and fingolimod on S1P1, S1P2, S1P3, S1P4 or S1P5 receptors. The compounds were tested in assay medium containing 0.5% FBS.

Data set [2] deals with T2, S1P1 (Homo sapiens, UniProt P21453). Briefly: cAMP HTRF assay in forskolin-treated HUVEC. The class given is cell-based. Set-up: host or cells: HUVEC (primary). The settings on record: 0.1% BSA. Here is the method: Briefly, HUVEC (Lonza) were seeded at 5×10^3 cells per well into a white 96 multiwell plate (half volume) for 24 hours in EGM2 medium (Lonza). At the beginning of the experiment, EGM2 medium was replaced by assay buffer consisting in HBSS containing Hepes (10 mM), BSA (0.1%) and IBMX (0.5 mM). Cells were allowed to recover during 15 min. […] After 45 min of FSK treatment, reaction was stopped by addition of MAb anti-cAMP-cryptate and cAMP-D2 for 1 hour. At the end of the incubation, fluorescence was read (Envision, Perkin Elmer) and FRET ratio calculated according to assay kit protocol.
(Time-resolved FRET reads energy transfer from a long-lived donor to a nearby acceptor.)

Data set [3] deals with T1, S1P2. Briefly: FlipR (Chem) GPCRProfiler assay, S1P2. The class given is cell-based. An excerpt:
(§2) The GPCRProfiler® assay from Millipore was used to determine the EC50 activity of compound A, BAF-312 and fingolimod on S1P1, S1P2, S1P3, S1P4 or S1P5 receptors. These assays used ChemiScreen GPCR stable cell lines.

Another data set addresses T3, hS1P1-G-fusion (Homo sapiens, UniProt P21453).
T3 construct: fused on or other part: Modified G-protein alpha subunit (G alpha i4qi4) fused to the receptor's C-terminus to force coupling to calcium release
Briefly: Calcium mobilization (FlipR) assay in CHO cells. The class given is cell-based. The settings on record: CHO over-expressing human S1P1 (G-fusion); 0% proteins in assay media.

Data set [4] concerns ICAM-I, VCAM-I, and P/E selectins. Briefly: TNFα-induced over-expression of adhesion molecules assay. The class given is cell-based. The settings on record: three human endothelial cell types (HPAEC, HUVEC and HRGEC). The procedure: ICAM-1, VCAM-1 and P/E-selectins expression were measured in HUVEC by ELISA. HUVEC cells were seeded in 96 multiwell plates at 25×10^3 cells per well under the volume of 100 μL in EGM2 medium (Lonza) and allowed to adhere for 24 h. After 24 h, complete medium was replaced by quiescent medium (EGM2 without supplements and serum) for 3 hours. Following this, cells were pre-treated with compound A or BAF-312 (1-30 μM) for 18 h. Cells were then treated with TNF-α (3 ng/mL) in growth-factors free medium for an additional 6 h period. Medium was removed and cells were washed and fixed with 100 μL RLC2 solution per well (Alphelys #01-RLC2-RTU30) for 20 min at 4° C. Fixed cells were washed twice with 100 μL HBSS before addition of antibodies anti-ICAM-1 (#BBA3, R&D System), anti-VCAM-1 (#BBA5, R&D System) and anti-P/E-Selectins (#BBA1, R&D system) for 1 hour. Following extensive wash, anti-mouse IgG HRP (#NA931, Amersham) was added for 2 hours. Optical density was read at 450 nm (Envision) after washing and addition of HRP substrate (OPD, Sigma #P9187). Results are expressed as percent inhibition of TNF-α-induced adhesion molecule expression.

The target of data set [5] is T2, S1P1. Briefly: PathHunter activated GPCR internalization assay, CHO. The class given is cell-based. Set-up: host or cells: CHO (PathHunter). The settings on record: 0.5% FBS. Here is the method:
The compounds were tested in assay medium containing 0.5% FBS.

The next data set concerns pAkt. Briefly: Akt phosphorylation in HUVEC under starvation (western blot). The class given is cell-based, human. As to conditions: Homo sapiens, HUVEC; 0.1% FBS; serum starvation. The procedure: HUVEC cells (Lonza) were seeded at 0.3×10^6 cells per well in 6 multiwell plates in 2 mL per well complete EGM2 medium (Lonza) for 24 hours. Cells were starved […] for an additional 24 hour period in 900 μL quiescent medium. Increasing concentrations of compound A, BAF-312 or fingolimod (10×) were added under the volume of 100 μL in each well for 10 minutes at 37° C. After medium removal, cells were rinsed with cold PBS and cells lysed on ice in 100 μL RIPA buffer containing 1% triton, proteases and phosphatases inhibitors. For western blotting, 30 μg of total protein lysate were loaded in 4-12% bis-tris gels (Invitrogen). Following migration and transfer, nitrocellulose membranes were probed with anti phospho-Akt (Phospho-Ser473, Cst #2965) and anti phospho-Erk1/2 (Phospho Tyr202/Tyr204, Cst #4377). Tubuline labelling with anti α-Tubuline (Cst #2144) was used for normalization after densitometric analysis of the films.

Data set [6] deals with T4, S1P3 (Homo sapiens, UniProt Q99500). Briefly: FlipR (Chem) GPCRProfiler assay, S1P3. The class given is cell-based.
Text: as §2

The subject of the next data set is Fischer rats. Briefly: Lung vascular leak study in rat (Evans blue). The class given is in vivo. The settings on record: Fisher rats, 7 days p.o. b.i.d.; compound A 1, 3 and 10 mg/kg; BAF-312 3 and 30 mg/kg. Here is the method:
Male Fischer rats (n=4-8, 280-350 g) (Charles River Laboratory, France) were treated, orally and twice a day, for 7 days with compound A (1, 3, 10, 30 and 100 mg/kg), BAF-312 (0.03, 0.1, 0.3, 3 and 30 mg/kg) or vehicle article (methylcellulose 0.6%—tween 80 0.5% in water) within a volume of administration of 2 mL/kg. After 7 days, rats were anesthetized using an i.p. injection of pentobarbital (50 mg/kg). Evans blue was injected i.v. in the retro-orbital sinus at 30 mg/kg in 1 mL/kg. Fifteen minutes later, physiological serum was injected by the left ventricle to rinse the body from residual intravascular Evans blue. Lung tissue was collected and weighted and then immersed in a pure formamide solution (4 mL/g tissue weight) during 24 h to extract tissue Evans blue and therefore evaluate vascular permeability. Evans blue concentration was evaluated at […] using a standard curve. Results are expressed as means+/−s.e.m.

The target of data set [7] is T4, S1P3. Briefly: PathHunter β-arrestin assay, S1P3. The class given is cell-based. As to conditions: 0.5% FBS. Here is the method:
as §1

Data set [8] has as its target T2, S1P1. Briefly: GTPγS assay, CHO. The settings on record: 0% proteins in assay media. On the set-up: host or cells: CHO (PathHunter). The class given is biochemical.
Data set [9] addresses T2, S1P1. Briefly: FLIPR calcium assay, ChemiScreen cells (GPCRProfiler, Millipore). The settings on record: ChemiScreen cells over-expressing human S1P1; 0% proteins in assay media; read-out: EC50, FLIPR, Chem cells. The class given is cell-based.
Where [10] appears, read: single experiments (footnote), read-out: EC50, internalisation assay, values of the 2 separate experiments.
[11] abbreviates: starred values are means of 2 separate experiments, read-out: EC50, Internalization, CHO.

T4 sequence (Q99500 whole entry): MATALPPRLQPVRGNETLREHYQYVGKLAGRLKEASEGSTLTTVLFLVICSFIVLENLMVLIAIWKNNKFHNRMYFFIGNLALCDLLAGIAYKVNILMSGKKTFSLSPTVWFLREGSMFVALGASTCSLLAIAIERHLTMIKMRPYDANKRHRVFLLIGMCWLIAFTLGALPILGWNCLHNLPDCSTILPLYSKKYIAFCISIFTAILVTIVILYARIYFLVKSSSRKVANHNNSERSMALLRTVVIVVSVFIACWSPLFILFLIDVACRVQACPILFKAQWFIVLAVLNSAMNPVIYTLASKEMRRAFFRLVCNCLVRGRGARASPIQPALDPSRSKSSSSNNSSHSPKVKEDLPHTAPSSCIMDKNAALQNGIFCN
T1 sequence (O95136 whole entry): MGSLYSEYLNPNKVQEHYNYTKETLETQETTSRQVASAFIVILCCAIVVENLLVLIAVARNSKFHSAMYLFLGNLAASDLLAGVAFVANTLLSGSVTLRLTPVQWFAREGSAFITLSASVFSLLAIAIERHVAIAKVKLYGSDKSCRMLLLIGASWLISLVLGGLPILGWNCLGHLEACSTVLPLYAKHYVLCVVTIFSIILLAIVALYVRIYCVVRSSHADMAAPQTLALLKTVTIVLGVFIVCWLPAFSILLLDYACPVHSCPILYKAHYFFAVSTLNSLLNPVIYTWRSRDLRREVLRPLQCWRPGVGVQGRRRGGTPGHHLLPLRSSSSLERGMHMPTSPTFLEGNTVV
T2 sequence (P21453 whole entry): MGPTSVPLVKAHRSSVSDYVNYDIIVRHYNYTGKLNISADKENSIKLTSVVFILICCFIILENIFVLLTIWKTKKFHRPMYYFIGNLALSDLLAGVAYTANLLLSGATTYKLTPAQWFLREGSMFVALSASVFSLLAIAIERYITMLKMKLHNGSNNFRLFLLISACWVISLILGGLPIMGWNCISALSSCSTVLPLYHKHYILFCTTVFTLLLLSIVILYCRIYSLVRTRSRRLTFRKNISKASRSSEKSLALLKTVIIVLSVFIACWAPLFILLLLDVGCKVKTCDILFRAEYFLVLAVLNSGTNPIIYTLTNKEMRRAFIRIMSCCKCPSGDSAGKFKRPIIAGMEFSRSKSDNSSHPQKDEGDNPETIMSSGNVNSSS
T3 sequence (P21453 whole entry, the tested form may be a part): as the sequence (P21453 whole entry) above
Method for hS1P1-G-fusion: The activation of the S1P1 receptor by the compounds was quantified by their effect on S1P1 receptor-related calcium liberation in a cell-based calcium fluorescence assay by use of CHO cells in which the human S1P1 receptor was stably overexpressed (Flp-In system, Invitrogen). […] Changes in intracellular calcium were determined by fluorescence measurement with the calcium-sensitive dye fluo-4 (Invitrogen) in a fluorescence imaging plate reader (FlipR, Molecular Dynamics).
CHO cells stably overexpressing the human S1P1 receptor were seeded (40.000 per well) in black clear-bottomed poly-D-lysine-coated 96 well plates (Becton Dickinson, Biocoat cellware) approximately 18-24 h prior to the experiments. […]
Prior to the FlipR experiment, cells were loaded with fluo-4 acetoxymethyl ester (fluo-4 AM, Invitrogen, #F14202) for 60 min in an incubator at 37° C., 5% carbon dioxide and 95% humidity in dye-loading buffer consisting of Hanks' Balanced Salt Solution (HBSS; Invitrogen #14065049) supplemented with fluo-4 AM at 2 μM (all data given for final concentration), Pluronic® F-127 0.05% (vol/vol) (Invitrogen, #P-3000MP), HEPES 20 mM (Gibco #15630), probenecid 2.5 mM (Sigma #P-8761) and bovine serum albumin (BSA) 0.05% (Sigma # A-6003), adjusted to pH 7.5 with sodium hydroxide. […] This latter buffer was also used as the buffer in the subsequent cell fluorescence measurements.
The dye-loaded and washed cells were then stimulated with respective compounds with various concentrations added as a solution in DMSO (0.3% vol/vol maximum final concentration of DMSO), or with S1P (100 nM final concentration) in DMSO in the respective concentration only (positive control). Compounds which activated the S1P receptor lead to liberation of intracellular calcium from internal stores resulting in a large transient increase of the fluo-4 fluorescence signal which was monitored over approximately 3 min. The percent activation caused by a test compound was determined from the maximum fluorescence response as compared to the maximum fluorescence response to the S1P positive control. […]

In the case of `CCc1cc(/C(C)=N/OCc2ccc(C3CCCCC3)c(C(F)(F)F)c2)ccc1CN1CC(C(=O)O)C1` [BAF-312], the concentration for a half-maximal effect (EC50) on S1P2 [1] was greater than 10000 nM; on S1P1 [2], 74 nM; on S1P2 [3] it was greater than 30000 nM; on hS1P1-G-fusion, 2.8 nM; at S1P1 [5] (setting [10]), < 0.5 nM and 0.67 nM; at S1P1 [5] (setting [11]), less than 0.59 nM. In addition, the EC50 was 4.3 nM with pAkt; greater than 30000 nM at S1P3 [6]; greater than 10000 nM on S1P3 [7]; 6.7 nM on S1P1 [8]; 29 nM at S1P1 [9]. For the same compound, the “TNFα-induced over-expression of adhesion molecules” value in data set [4] is “unlike BAF-312, reduced TNFα-induced over-expression”. Besides, the “Lung vascular leakage (Evans blue extravasation)” value in the data set with Fischer rats is “induced vascular leakage”.

For `Cc1cc(-c2nc3cnc(Oc4cccc(Cl)c4)nc3o2)cc(C)c1OCC(=O)O` [Compound A, {4-[5-(3-chloro-phenoxy)-oxazolo[5,4-d]pyrimidin-2-yl]-2,6-dimethyl-phenoxy}-acetic acid], the EC50 is greater than 10000 nM at S1P2 [1]; 15600 nM at S1P1 [2]; greater than 30000 nM at S1P2 [3]; 31 nM at hS1P1-G-fusion; 160 nM and 266 nM at S1P1 [5] (setting [10]); 213 nM at S1P1 [5] (setting [11]). The EC50 in the data set with pAkt is 101 nM; at S1P3 [6], greater than 30000 nM; on S1P3 [7], greater than 10000 nM; at S1P1 [8], 206 nM; on S1P1 [9] it was 86 nM. Besides, the “TNFα-induced over-expression of adhesion molecules” value in data set [4] is “reduced TNFα-induced over-expression of adhesion molecules”. The “Lung vascular leakage (Evans blue extravasation)” value in the data set with Fischer rats is “did not induce lung vascular leakage”.

As a reminder, the EC50 is the concentration at which the effect is half-maximal.
